Reference: patent US11938125B2, “Use of Hsp70 as a regulator of enzymatic activity” (Zevra Denmark A/S, priority 2008, dated 2024)
Entries after “also recorded” stand apart in the source; their conditions may differ.

Experiments:
[1] = test system: lysosomes of U-2-OS cells; test: Lysosomal integrity upon photo-oxidation (acridine orange and blue light); type: cell-based, human; conditions: for protection of lysosomes against photo-oxidation (lysosomal integrity): U-2-OS cells, recombinant protein 300 nM, 24 h
Description: Sub-confluent U-2-OS cells incubated with 2 μg/ml acridine orange for 15 min at 37° C. were washed, irradiated and analyzed in Hanks balanced salt solution complemented with 3% FCS. Cells for single cell imaging were selected from 8 pre-defined areas of each well in transmitted light-mode after which the same cells were immediately visualized and exposed to blue light from USH102 100 W mercury arc burner (Ushio electric) installed in a U-ULS100HG housing (Olympus) for 20 sec. Fluorescence microscopy was performed on Olympus IX-70 inverted microscope with a LCPlanF1×20 objective with NA=0.40. Loss of lysosomal pH gradient was quantified by counting the loss of intense red staining.
(§1) Assays for lysosomal integrity. Sub-confluent cells incubated with 2 μg/ml acridine orange for 15 min at 37° C. were washed, irradiated and analyzed in Hanks balanced salt solution complemented with 3% fetal calf serum. Cells for single cell imaging were selected from 8 pre-defined areas of each well in transmitted light-mode after which the same cells were immediately visualized and exposed to blue light from USH102 100 W mercury arc burner (Ushio electric) installed in a U-ULS100HG housing (Olympus) for 20 sec. Fluorescence microscopy was performed on Olympus IX-70 inverted microscope with a LCPlanF1×20 objective with NA=0.40. Loss of lysosomal pH gradient was quantified by counting the loss of intense red staining. A more elaborate method for assaying lysosomal integrity was developed to handle the larger lysosomal compartment of the various fibroblasts used in this study. Cells for single cell imaging were selected from 8 pre-defined areas of each well in transmitted light-mode after which the same cells were immediately and continuously exposed to 489 nm light from a 100 mW diode laser while laser scanning micrographs where captured every 330 ms on a Zeiss LSM LIVE DUO confocal system in two channels defined by bandpass filters for 495-555 nm (green) and LP650 nm (Red) light. The resulting timelapse movies where subsequently analysed by the integrated Zeiss LSM DUO software. The total and cytoplasmic (digitonin-extracted) cathepsin activities were measured in digitonin-treated samples using zFR-AFC (Enzyme System Products) probe as described in the art.

HSPs, including Hsp70 = conditions: cited from earlier work
[2] = test system: lysosomes of NPDA patient fibroblasts; test: Lysosomal stability of NPDA fibroblasts (photo-oxidation, live single-cell imaging); type: cell-based, human; conditions: NPDA Götz cells, 40 mM
Description: as §1

NPDA fibroblasts = test: Lysosomal area of confocal cross sections, NPDA fibroblasts; type: cell-based, human; conditions: for pathology measured by lysosomal cross-sectional area: NPDA Götz cells, 40 mM
Text: Immunodetection and microscopy. Primary antibodies used included mouse monoclonal antibodies against Hsp70 (2H9; kindly provided by Boris Margulis, Russian Academy of Sciences, St. Petersburg, Russia), glyceraldehyde-3-phosphate dehydrogenase (GAPDH; Biogenesis), BMP (6C4), lysosomal integral membrane protein-1 (H5C6; developed by J. Thomas August and James E. K. Hildreth and obtained from the Developmental Studies Hybridoma Bank developed under the auspices of the NICHD and maintained by The University of Iowa, Department of Biological Sciences, Iowa City, USA). Proteins separated by 10% SDS-PAGE and transferred to a nitrocellulose membrane were detected by using indicated primary antibodies, appropriate peroxidase-conjugated secondary antibodies from Dako, ECL Western blotting reagents (Amersham), and Luminescent Image Reader (LAS-1000Plus, Fujifilm). For immunocytochemistry Alexa […] or Alexa Fluor®-488-conjugated secondary antibodies were used. Lysotracker Red® was used for live visualization of the lysosomal compartment. Fluorescence images were taken using a Zeiss Axiovert 100M laser scanning microscope. Lysotracker quantification and timelapse movies for lysosomal integrity were done on a Zeiss LSM LIVE DUO system.

Hsp70 = Hsp70 protein expression by western blotting in NPDA cells; type: cell-based, human; conditions: NPDA Götz cells, 0, 20, 30, 35, 40, 45 mM
Description: It is shown in Examples 2 and 3 that Hsp70 has a lysosome stabilizing effect via an interaction with BMP. In order to evaluate if this effect is also observed when exposing cells to a chemical Hsp70 inducer, Niemann-Pick Type A (NPDA) patient fibroblasts were treated with the small molecule Hsp70 inducer; Benzyl Alcohol (BA). First, NPDA cells were treated with increasing doses of BA (0, 20, 30, 35, 40, 45 mM), lysed, and analysed by western blotting. The same amount of protein was loaded in each well. […] Next, the stability of NPDA Götz lysosomes after treatment with 40 mM BA was evaluated, using the same methods as described in Example 2. […] Finally, the lysosomal cross-sectional area in NPDA Götz cells after treatment with 40 mM BA was evaluated, using the same methods as described in Example 2.

[3] = test system: U-2-OS osteosarcoma cells; test: Cisplatin-induced apoptosis-like cell death (Hoechst 33342); type: cell-based, human; conditions: for protection of cells against cisplatin-induced lysosomal cell death: recombinant protein 300 nM 24 h, 25 μM cisplatin 24 h
Description: (§2) Apoptosis-like cell death was assessed by staining the cells with 0.05 μg/ml Hoechst 33342 (Molecular Probes) and counting cells with condensed nuclei in an inverted Olympus IX-70 fluorescent Microscope (Filter U-MWU 330-385 nm). For each experiment a minimum of eight randomly chosen areas were counted.
as §2, with “Assays for cell viability. Cell density was assessed by the 3-(4,5-dimethylthiazole-2-y)-2,5-[…] (MTT, SIGMA-Aldrich) reduction assay essentially as described in the art. Apoptosis-like” for “Apoptosis-like”

POPC/BMP liposomes = test: Tryptophan fluorescence shift upon docking into POPC/BMP liposomes; type: binding; conditions: pH 6.0
Description: (§3) The tryptophan fluorescence spectra (RFI) and liposome 900 light scattering (RSI) were analyzed in a HEPES buffer (20 mM HEPES, 0.1 mM EDTA, pH 7.4 or 6.0 as indicated) employing LUVs consisting of indicated lipids essentially as described previously. For the RFI, LUVs were added in 10 μM aliquots and spectra recorded after a 20 min stabilization period. For the RSI, recombinant proteins were added in 0.12 nmol aliquots.
as §3, with “Tryptophan fluorescence spectra and liposome 90° light scattering. The” for “The”, “in the art.” for “previously.”

BMP = test: BIAcore surface plasmon resonance with immobilized BMP-containing LUVs; type: binding; conditions: pH 4.5, L1 sensor chip
Description: (§4) For preparation of LUVs a lipid mixture consisting of 10 mol % sphingomyelin, 50 mol % phosphatidylcholine, 20 mol % cholesterol and 20 mol % BMP dissolved in organic solvents, was dried under a stream of argon and rehydrated in Tris/HCl buffer (pH 7.4) (Kolzer et al., 2004). The mixture was freeze-thawed nine times in liquid nitrogen and then in an incubator at 37° C. After ultrasound bath for 15 min the mixture was passed 21 times through a polycarbonate membrane with a pore diameter of 100 nm. Surface plasmon resonance measurements were performed using a BIAcore 2000 system at 25° C. LUVs (total lipid concentration 0.1 mM) were immobilized on the surface of a L1 sensor chip (BIAcore) in PBS (loading buffer). The running buffer used was sodium acetate buffer (50 mM, pH 4.5). As a control, acid sphingomyelinase (0.2 μM, 60 μl in running buffer) was injected directly on the liposome surface. Response units between 4100 RU-5250RU were obtained. The protein of interest was injected in running buffer at a flow rate of 20 μl/min at the concentrations indicated. After injection a dissociation phase of 10 min was appended.
as §4, with “Surface Plasmon Resonance (BIAcore). For” for “For”, “7.4).” for “7.4) (Kolzer et al., 2004).”, “The protein of interest was injected in running buffer at a flow rate of 20 μl/min at the concentrations indicated. After injection a dissociation phase of 10 min was appended.” left out

[4] = Folding and chaperone function of rHsp70 mutant (circular dichroism, luciferase folding, ATP hydrolysis); type: biochemical

## 5′-GCCAUGACGAAAGACAACAAUCUGU-3′ (other strand not given here) [Hsp70 siRNA, siRNA targeting the two genes encoding Hsp70, reference compound]
[1]; U-2-OS cells, siRNA 48 h; listed as siRNA) specific for Hsp70
  sensitization of lysosomes to photo-oxidation by siRNA: sensitized lysosomes of U-2-OS cells to photo-oxidation; also recorded: sensitized the lysosomes to photo-oxidation

## [O-][n+]1cccc(/C(Cl)=N/OC[C@H](O)CN2CCCCC2)c1 [Arimoclomol]
HSPs, including Hsp70
  induction or co-induction of HSPs / heat shock response: interacts with and amplifies the heat shock response

## [O-][n+]1cccc(C(Cl)=NOC[C@H](O)CN2CCCCC2)c1 [BRX-345]
HSPs, including Hsp70
  induction or co-induction of HSPs / heat shock response: somewhat lesser ability to induce HSPs

## OCc1ccccc1 [Benzyl Alcohol]
[2]
  stability of lysosomes: Increased stability of NPDA Götz lysosomes
[2]; listed as BA
  stability of lysosomes: increased lysosomal stability
NPDA fibroblasts
  pathology measured by lysosomal cross-sectional area: Decreased pathology
NPDA fibroblasts; listed as BA
  pathology measured by lysosomal cross-sectional area: decreased pathology
Hsp70
  Hsp70 protein expression: Induction of Hsp70 in NPDA Götz by Benzyl alcohol in a dose-dependent manner
Hsp70; listed as BA
  Hsp70 protein expression: induced Hsp70 expression in a dose-dependent manner

## O=C(O)/C=C\C(=O)O.OC(CON=C(Cl)c1cccnc1)CN1CCCCC1 (centres unmarked) [Bimoclomol, [2-hydroxy-3-(1-piperidinyl)propoxy]-3-pyridine-carboximidoyl-chloride maleate]
HSPs, including Hsp70
  induction or co-induction of HSPs / heat shock response: capability of Hsp70 co-induction in the absence of unfolded proteins

## N.N.[Cl][Pt][Cl] [cisplatin, reference compound]
[3]; U-2-OS cells
  lysosomal membrane permeabilization: induces an early lysosomal membrane permeabilization

## Hsc70: recombinant Hsc70, 86% amino acid sequence homology with Hsp70
[1]
  protection of lysosomes against photo-oxidation (lysosomal integrity): no protection; also recorded: no lysosomal stabilization

## Hsp70-2: recombinant Hsp70-2, 84% amino acid sequence homology with Hsp70
[1]
  protection of lysosomes against photo-oxidation (lysosomal integrity): no protection; also recorded: no lysosomal stabilization

## rHsp70-W90F: rHsp70 point mutant, tryptophan 90 substituted with phenylalanine
[1]
  protection of lysosomes against photo-oxidation (lysosomal integrity): completely lost its ability to protect the lysosomal membranes against photo-oxidation
POPC/BMP liposomes
  relative peak fluorescence intensity (tryptophan fluorescence shift): reduction of the signal
BMP
  interaction with BMP-containing LUVs (BIAcore): dramatically decreased; also recorded: specifically abolished the interaction between rHsp70 and BMP
[3]
  protection of cells against cisplatin-induced lysosomal cell death: completely lost its ability
NPDA fibroblasts; NPDA fibroblasts, 24 h, 300 nM rHsp70 or W90F, 150 nM rASM or combination
  lysosomal area / volume of the lysosomal compartment: effect comparable to control cells
[4]
  luciferase folding and ATP hydrolysis: capable of folding luciferase and hydrolyzing ATP

## rHsp70-W580F: rHsp70 point mutant, tryptophan 580 substituted with phenylalanine
[1]
  protection of lysosomes against photo-oxidation (lysosomal integrity): same efficacy as the wild-type protein; also recorded: same protective effect as the wild-type protein
POPC/BMP liposomes
  relative peak fluorescence intensity (tryptophan fluorescence shift): unchanged signal
BMP
  interaction with BMP-containing LUVs (BIAcore): essentially the same interaction profile as rHsp70
[3]
  protection of cells against cisplatin-induced lysosomal cell death: same efficacy as the wild-type protein; also recorded: same protective effect as the wild-type protein
